How the values were obtained:
pigweed = experiment: Test B pre/postemergence pigweed; format: in vivo, Amaranthus retroflexus
Procedure, shortened: (§1)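 Response is a visual 0-to-10 score relative to untreated plants, where 0 means no effect and 10 means complete control, taken twelve to sixteen days after application. Treatments went onto soil at planting and onto foliage of 1- to 4-leaf plants, using a surfactant-containing non-phytotoxic solvent.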

sugar beet = experiment: Test B pre/postemergence sugar beet; format: in vivo, Beta vulgaris
Procedure, shortened: as §1

wheat = experiment: Test B pre/postemergence wheat; format: in vivo, Triticum aestivum
Procedure, shortened: as §1

rape = experiment: Test B pre/postemergence rape; format: in vivo, Brassica napus
Procedure, shortened: as §1

blackgrass = experiment: Test B pre/postemergence blackgrass; format: in vivo, Alopecurus myosuroides
Procedure, shortened: as §1

morningglory = experiment: Test B pre/postemergence morningglory; format: in vivo, Ipomoea hederacea
Procedure, shortened: as §1

crabgrass = experiment: Test B pre/postemergence crabgrass; format: in vivo, Digitaria sanguinalis
Procedure, shortened: as §1

soybean = experiment: Test B pre/postemergence soybean; format: in vivo, Glycine max
Procedure, shortened: as §1

giant foxtail = experiment: Test B pre/postemergence giant foxtail; format: in vivo, Setaria faberii
Procedure, shortened: as §1

bedstraw = experiment: Test B pre/postemergence bedstraw; format: in vivo, Galium aparine
Procedure, shortened: as §1

cocklebur = experiment: Test B pre/postemergence cocklebur; format: in vivo, Xanthium strumarium
Procedure, shortened: as §1

corn = experiment: Test B pre/postemergence corn; format: in vivo, Zea mays
Procedure, shortened: as §1

velvetleaf = experiment: Test B pre/postemergence velvetleaf; format: in vivo, Abutilon theophrasti
Procedure, shortened: as §1

purple nutsedge = experiment: Test B pre/postemergence purple nutsedge; format: in vivo, Cyperus rotundus
Procedure, shortened: as §1

wild oat = experiment: Test B pre/postemergence wild oat; format: in vivo, Avena fatua
Procedure, shortened: as §1

surinam grass = experiment: Test B pre/postemergence surinam grass; format: in vivo, Brachiaria decumbens
Procedure, shortened: as §1

[1] = Postemergence, Rate 62 g/ha, scale 0 to 10, 0 is no effect, 10 is complete control
[2] = Postemergence, Rate 125 g/ha, scale of 0 to 10 where 0 is no effect and 10 is complete control
[3] = Preemergence, Rate 125 g/ha, scale of 0 to 10 where 0 is no effect and 10 is complete control
[4] = Preemergence, Rate 250 g/ha, scale 0 (no effect) to 10 (complete control)
[5] = Rate 62 g/ha, Preemergence, scale 0 to 10
[6] = Rate 250 g/ha, Postemergence, scale 0 to 10, 0 is no effect, 10 is complete control
[7] = Rate 500 g/ha, Postemergence, scale 0 to 10, 0 is no effect, 10 is complete control
[8] = Rate 500 g/ha, Preemergence, scale 0 to 10 (0 no effect, 10 complete control)

## CC(C)N(C(=O)n1oc(=O)n(CC(F)F)c1=O)c1ccc(Cl)cc1 [Compound 745]
pigweed; [1]
  Plant response rating, Redroot pigweed: 2
pigweed; [2]
  Redroot pigweed plant response rating: 2
pigweed; [3]
  Plant response rating, Redroot pigweed: 9
pigweed; [4]
  Redroot pigweed plant response rating: 10
pigweed; [5]
  Redroot pigweed plant response rating: 7
pigweed; [6]
  Redroot pigweed plant response rating: 5
pigweed; [7]
  Redroot pigweed plant response rating: 6
pigweed; [8]
  Redroot pigweed plant response rating: 10
Sugar beet; [1]
  Plant response rating, Sugarbeets: 2
Sugar beet; [2]
  Sugarbeets plant response rating: 2
Sugar beet; [3]
  Plant response rating, Sugarbeets: 4
Sugar beet; [4]
  Sugarbeets plant response rating: 4
Sugar beet; [5]
  Sugarbeets plant response rating: 0
Sugar beet; [6]
  Sugarbeets plant response rating: 4
Sugar beet; [7]
  Sugarbeets plant response rating: 4
Sugar beet; [8]
  Sugarbeets plant response rating: 4
wheat; [1]
  Plant response rating, Wheat: 0
wheat; [2]
  Wheat plant response rating: 0
wheat; [3]
  Plant response rating, Wheat: 0
wheat; [4]
  Wheat plant response rating: 0
wheat; [5]
  Wheat plant response rating: 0
wheat; [6]
  Wheat plant response rating: 0
wheat; [7]
  Wheat plant response rating: 3
wheat; [8]
  Wheat plant response rating: 0
rape; [1]
  Plant response rating, Rape: 0
rape; [2]
  Rape plant response rating: 0
rape; [3]
  Plant response rating, Rape: 5
rape; [4]
  Rape plant response rating: 7
rape; [5]
  Rape plant response rating: 0
rape; [6]
  Rape plant response rating: 5
rape; [7]
  Rape plant response rating: 7
rape; [8]
  Rape plant response rating: 7
blackgrass; [1]
  Plant response rating, Blackgrass: 3
blackgrass; [2]
  Blackgrass plant response rating: 3
blackgrass; [3]
  Plant response rating, Blackgrass: 6
blackgrass; [4]
  Blackgrass plant response rating: 9
blackgrass; [5]
  Blackgrass plant response rating: 3
blackgrass; [6]
  Blackgrass plant response rating: 8
blackgrass; [7]
  Blackgrass plant response rating: 9
blackgrass; [8]
  Blackgrass plant response rating: 9
morningglory; [1]
  Plant response rating, Morningglory: 3
morningglory; [2]
  Morningglory plant response rating: 3
morningglory; [3]
  Plant response rating, Morningglory: 0
morningglory; [4]
  Morningglory plant response rating: 0
morningglory; [5]
  Morningglory plant response rating: 0
morningglory; [6]
  Morningglory plant response rating: 3
morningglory; [7]
  Morningglory plant response rating: 8
morningglory; [8]
  Morningglory plant response rating: 3
crabgrass; [1]
  Plant response rating, Crabgrass: 4
crabgrass; [2]
  Crabgrass plant response rating: 4
crabgrass; [3]
  Plant response rating, Crabgrass: 10
crabgrass; [4]
  Crabgrass plant response rating: 10
crabgrass; [5]
  Crabgrass plant response rating: 7
crabgrass; [6]
  Crabgrass plant response rating: 9
crabgrass; [7]
  Crabgrass plant response rating: 9
crabgrass; [8]
  Crabgrass plant response rating: 10
soybean; [1]
  Plant response rating, Soybean: 3
soybean; [2]
  Soybean plant response rating: 3
soybean; [3]
  Plant response rating, Soybean: 0
soybean; [4]
  Soybean plant response rating: 0
soybean; [5]
  Soybean plant response rating: 0
soybean; [6]
  Soybean plant response rating: 5
soybean; [7]
  Soybean plant response rating: 5
soybean; [8]
  Soybean plant response rating: 0
Giant foxtail; [1]
  Plant response rating, Giant foxtail: 2
Giant foxtail; [2]
  Giant foxtail plant response rating: 2
Giant foxtail; [3]
  Plant response rating, Giant foxtail: 10
Giant foxtail; [4]
  Giant foxtail plant response rating: 10
Giant foxtail; [5]
  Giant foxtail plant response rating: 10
Giant foxtail; [6]
  Giant foxtail plant response rating: 9
Giant foxtail; [7]
  Giant foxtail plant response rating: 9
Giant foxtail; [8]
  Giant foxtail plant response rating: 10
bedstraw; [4]
  Bedstraw plant response rating: 5
bedstraw; [5]
  Bedstraw plant response rating: 0
bedstraw; [6]
  Bedstraw plant response rating: 7
bedstraw; [7]
  Bedstraw plant response rating: 9
bedstraw; [8]
  Bedstraw plant response rating: 5
cocklebur; [1]
  Plant response rating, Cocklebur: 0
cocklebur; [2]
  Cocklebur plant response rating: 0
cocklebur; [3]
  Plant response rating, Cocklebur: 0
cocklebur; [4]
  Cocklebur plant response rating: 0
cocklebur; [5]
  Cocklebur plant response rating: 0
cocklebur; [6]
  Cocklebur plant response rating: 0
cocklebur; [7]
  Cocklebur plant response rating: 4
cocklebur; [8]
  Cocklebur plant response rating: 0
corn; [1]
  Plant response rating, Corn: 0
corn; [2]
  Corn plant response rating: 0
corn; [3]
  Plant response rating, Corn: 0
corn; [4]
  Corn plant response rating: 2
corn; [5]
  Corn plant response rating: 0
corn; [6]
  Corn plant response rating: 0
corn; [7]
  Corn plant response rating: 0
corn; [8]
  Corn plant response rating: 2
velvetleaf; [1]
  Plant response rating, Velvetleaf: 0
velvetleaf; [2]
  Velvetleaf plant response rating: 0
velvetleaf; [3]
  Plant response rating, Velvetleaf: 0
velvetleaf; [4]
  Velvetleaf plant response rating: 4
velvetleaf; [5]
  Velvetleaf plant response rating: 0
velvetleaf; [6]
  Velvetleaf plant response rating: 3
velvetleaf; [7]
  Velvetleaf plant response rating: 7
velvetleaf; [8]
  Velvetleaf plant response rating: 6
Purple nutsedge; [1]
  Plant response rating, Nutsedge: 0
Purple nutsedge; [2]
  Nutsedge plant response rating: 0
Purple nutsedge; [4]
  Nutsedge plant response rating: 0
Purple nutsedge; [5]
  Nutsedge plant response rating: 0
Purple nutsedge; [6]
  Nutsedge plant response rating: 0
Purple nutsedge; [7]
  Nutsedge plant response rating: 0
Purple nutsedge; [8]
  Nutsedge plant response rating: 5
Wild oat; [1]
  Plant response rating, Wild oats: 0
Wild oat; [2]
  Wild oats plant response rating: 0
Wild oat; [3]
  Plant response rating, Wild oats: 6
Wild oat; [4]
  Wild oats plant response rating: 8
Wild oat; [5]
  Wild oats plant response rating: 2
Wild oat; [6]
  Wild oats plant response rating: 4
Wild oat; [7]
  Wild oats plant response rating: 4
Wild oat; [8]
  Wild oats plant response rating: 8
Surinam grass; [1]
  Plant response rating, B. signalgrass: 0
Surinam grass; [2]
  B. signalgrass plant response rating: 0
Surinam grass; Preemergence, Rate 62 g/ha, scale of 0 to 10 where 0 is no effect and 10 is complete control
  B. signalgrass plant response rating: 8
Surinam grass; [3]
  Plant response rating, B. signalgrass: 9
Surinam grass; [4]
  B. signalgrass plant response rating: 10
Surinam grass; [6]
  B. signalgrass plant response rating: 6
Surinam grass; [7]
  B. signalgrass plant response rating: 6
Surinam grass; [8]
  B. signalgrass plant response rating: 10

From patent US6737383B1, “Herbicidal oxadiazolidines” (priority 1999, dated 2004)
